The values that follow come from patent US8361970B2, “Growth factor binding molecules” (University of South Florida, priority 2000, dated 2013).

Where “and” joins values, the source holds several entries; their conditions need not be identical. Equal entries are not always repeated. Where two headings read alike, the source gives them in different places. Some results are limits rather than exact numbers.

The term % Inhibition denotes the drop in the measured response relative to a control, in per cent.

Holding throughout (format): cell-based
Assay [1] relates to PDGF-stimulated PDGFR tyrosine phosphorylation. Kind of assay: Inhibition of PDGF-stimulated PDGFR tyrosine phosphorylation in NIH 3T3 cells (anti-phosphotyrosine Western blot). The note with it: 5 min pretreatment, PDGF 10 ng/ml 10 min, read-out: (IC50) Inhibition PDGFR-Y-P. As to the method: Starved NIH 3T3 cells are pretreated with various growth factor binding agents (0-100 μM) for 5 min before stimulation with PDGF (10 ng/mL) for 10 min. The cells are then harvested and lysed, and the proteins from the lysates separated by SDS-PAGE and immunoblotted with an anti-phosphotyrosine antibody (4G10: Upstate Biotechnology, Lake Placid, N.Y.). The phosphotyrosine PDGF receptor bands are scanned, and the concentrations of growth factor binding molecules that inhibited the ability of PDGF to stimulate PDGFR tyrosine phosphorylation by 50% are determined.
(§1) Starved NIII 3T3 cells (PDGF-BB and PDGF-AA), NIH 3T3 cells overexpressing either EGFR (EGF) or Flk-1 (VEGF) are pre-treated with the indicated concentrations of GFB-111 for 5 minutes before 10 minutes of stimulation with PDGF-BB (10 ng/ml), PDGF-AA (10 ng/ml), EGF (100 ng/ml) and VEGF (50 ng/ml). Cell lysates are run on SDS-PAGE gels, then transferred to nitrocellulose and Western blotted with anti-phosphotyrosine (4G 10) or anti-phosphorylated Erk1/Erk2 (New England Biolabs).
A novel series of protein surface binding agents are prepared that bind PDGF and disrupt its signaling function. The molecules are composed of a central calix[4] arene scaffold to which is attached four peptide loop domains (FIG. 1). The peptide loop component is based on a cyclic hexapeptide in which two residues are replaced by a 3-aminomethylbenzoate dipeptide mimetic containing a 5-amino substituent for attachment to the scaffold. The resulting molecules (as shown in Table 1) contain a functionalized and variable surface approximately 500 Å^2 in area. Several peptide loop sequences are synthesized (Table 1) to provide molecular surfaces with negatively and positively charged as well as hydrophobic regions designed to bind to complementary areas on the target growth factor. To identify PDGF binding molecules from this library, a cell-based screening assay is developed with NIH 3T3 cells to detect molecules capable of blocking PDGF-BB-induced tyrosine autophosphorylation of the PDGF receptor. The ability of the identified molecules to bind PDGF-BB and inhibit interaction with its receptor is then confirmed biochemically. Starved NIH 3T3 cells are pretreated for 5 min with the synthetic molecules prior to stimulation with PDGF for 10 min. The effects of the molecules on PDGF-stimulated receptor tyrosine phosphorylation are determined by the antiphosphotyrosine Western blotting as described in Table 1. […] GFB-111 has four-fold symmetry containing 4 identical peptide loops with negative and hydrophobic residues, GlyAspGlyTyr (GDGY) (SEQ ID NO. 6), that are designed to be complementary to the PDGF surface involved in binding to PDGFR. The area of PDGF-BB that binds PDGFR is composed primarily of positive and hydrophobic residues.
Starved NIH 3T3 cells are pretreated with the various GFBs (0-100 μM) for 5 min. prior to stimulation with PDGF (10 ng/ml) for 10 min. The cells are then harvested lysed and the proteins from the lysates are separated by SDS-PAGE and immunoblotted with an anti-phosphotyrosine antibody (4G10, Upstate Biotechnology, Lake Placid, N.Y.). The phosphotyrosine PDGF receptor bands are scanned and the concentrations of GFBs that inhibit the ability of PDGF to stimulate PDGFR tyrosine phosphorylation by 50% are determined. Data for each compound is representative of at least two independent experiments. FIG. 1 illustrates the structure of growth factor binders. GFBs are synthesized as described by Park, H. D. et al., Protein surface recognition by synthetic receptors: A route to novel sub-micromolar inhibitors for chymotrypsin. J. Am. Chem. Soc. 121, 8-13 (1999); and Hamuro, Y. et al., A calixarene with four peptide loops: An antibody mimic for recognition of protein surfaces. Angew. Chemie Int. Ed. Engl. 36, 2680-2683 (1997), each herein incorporated by reference in its respective entirety.

For assay [2], the system named is IGF-1 stimulated IGF-1R tyrosine phosphorylation. Kind of assay: Inhibition of IGF-1 stimulated IGFR tyrosine phosphorylation in IGFR/3T3 cells. The note with it: 100 μM; IGFR/3T3, IGF-1 stimulated. As to the method: (§2) The ability of the GFB library to block the ability of IGF-1 to stimulate the IFG-1 R tyrosine phosphorylation and MAP kinase activation is evaluated using the cell assay described above with IGF-1R/3T3 cells as target cell. […] A preferred embodiment of the invention is a compound that binds to an insulin-like growth factor-1, of the general structure III, wherein R is n-butyl, n-propyl, or benzyl, and X1, X2, X3, and X4 optionally comprise identical cyclic peptide loops of the general structure II, and wherein R1, R2, R3, and R4 are each amino acid side chains that define a tetrapeptide sequence, wherein said tetrapeptide is covalently attached at the amino and carboxy termini of said tetrapeptide to a 3-aminomethyl-5-aminobenzamide linking group.

Assay [3] relates to IGF-1 stimulated MAP kinase activation. Kind of assay: Inhibition of IGF-1 stimulated MAP kinase (p42/p44) activation in IGFR/3T3 cells. The note with it: 100 μM; IGFR/3T3, IGF-1 stimulated. The protocol: (§3) In other experiments, starved NIH 3T3 cells (PDGF-AA, PDGF-BB, aFGF, bFGF), NIH 3T3 cells overexpressing EGFR. IGF-1R or Flk-1 and the human breast carcinoma SkBr3 that overexpresses ErbB2 (HRGβ) are pretreated with GFB-111 (100 μM) for 5 min before 10 min stimulation with the indicated growth factors at the concentrations shown above and aFGF (10 ng/ml), bFGF (50 ng/ml), IGF-1 (50 ng/ml) and HRGβ (10 ng/ml). Cell lysates are then immunoblotted with anti-phospho Erk1/Erk2 as described above.
as §2

Assay [4] relates to PDGF-stimulated Erk1/Erk2 activation. The experiment in a line: Inhibition of PDGF-stimulated activation of MAPK Erk1/Erk2 (p44/p42) in NIH 3T3 cells. The note with it: NIH 3T3, PDGF stimulated. The protocol: as §1, §3
The mark [5] stands for this setting: head p42/Erk2 (p42 for GFB-132 to 137), read-out: (IC50) Inhibition p42/Erk2.
[6] abbreviates: read-out: (IC50) Inhibition p44.

Take GDAD [GFB-110]: the IC50 came out at 1.7 µM in assay [1] and 7 µM in assay [4] (setting [5]). The “% Inhibition at 100 μM IGF1R-Y-P” value in assay [2] was 40.9% and 32.4%. The “% Inhibition at 100 μM p44” value in assay [3] was 55.4% and 47.1%.

For the substance GDDD [GFB-129], in assay [2], the “% Inhibition at 100 μM IGF1R-Y-P” value is 3.4%. Besides, in assay [3], the “% Inhibition at 100 μM p42” value stood at 2.8% and the “% Inhibition at 100 μM p44” value was determined as 33.4%.

With GDDD [GFB-136], the IC50 amounted to 3 µM in assay [1], 25 µM in assay [4] (setting [5]) and 24 µM in assay [4] (setting [6]). In addition, in assay [2], the “% Inhibition at 100 μM IGF1R-Y-P” value came to 40.6%. Further, in assay [3], the “% Inhibition at 100 μM p42” value was determined as 15.0%.

On to GDDG [GFB-120], for which, in assay [1], the IC50 stood at 1.3 µM. Also, in assay [2], the “% Inhibition at 100 μM IGF1R-Y-P” value was 35.4%. Moreover, in assay [3], the “% Inhibition at 100 μM p42” value was determined as 68.1% and the “% Inhibition at 100 μM p44” value amounted to 85.9%. Moreover, in assay [4] (setting [5]), the IC50 was 1.7 µM.

As for GDDG [GFB-123], the IC50 in assay [1] and in assay [4] (setting [5]) was over 50 µM throughout. In addition, in assay [2], the “% Inhibition at 100 μM IGF1R-Y-P” value stood at 24.2%. For the same substance, the “% Inhibition at 100 μM p42” value in assay [3] is 26.7%. The “% Inhibition at 100 μM p44” value in assay [3] came to 62.4%.

For GDDG [GFB-131], in assay [2], the “% Inhibition at 100 μM IGF1R-Y-P” value is listed as 30.2%. Also, in assay [3], the “% Inhibition at 100 μM p42” value is −6.2% and the “% Inhibition at 100 μM p44” value was 20.0%.

For GDDY [GFB-122], the IC50 in assay [1] stood at 1.7 µM. Also, the “% Inhibition at 100 μM IGF1R-Y-P” value in assay [2] is recorded as 38.4%. In addition, in assay [3], the “% Inhibition at 100 μM p42” value amounted to 33.6% and the “% Inhibition at 100 μM p44” value is given as 66.6%. For the same substance, the IC50 in assay [4] (setting [5]) was determined as 19 µM.

For GDDY [GFB-130], the “% Inhibition at 100 μM IGF1R-Y-P” value in assay [2] is recorded as 22.7%. In assay [3], the “% Inhibition at 100 μM p42” value is −19.7% and the “% Inhibition at 100 μM p44” value was −17.5%.

As for GDGD [GFB-103], the IC50 in assay [1] and in assay [4] (setting [5]) was over 500 µM each time.

Regarding GDGD [GFB-104], the IC50 in assay [1] was over 500 µM. Besides, the “% Inhibition at 100 μM IGF1R-Y-P” value in assay [2] is reported as −28.4%. For the same substance, in assay [3], the “% Inhibition at 100 μM p42” value is recorded as −0.19% and the “% Inhibition at 100 μM p44” value turned out to be 22.4%. Also, in assay [4] (setting [5]), the IC50 was over 500 µM.

As to GDGY [GFB-128], in assay [1], the IC50 is 26 µM. In addition, the “% Inhibition at 100 μM IGF1R-Y-P” value in assay [2] is −12.0%. Further, in assay [3], the “% Inhibition at 100 μM p42” value is listed as −6.1% and the “% Inhibition at 100 μM p44” value stood at 38.2%. For the same substance, the IC50 in assay [4] (setting [5]) was over 50 µM.

Regarding GDGY [GFB-132], the values for the IC50 in assay [1], in assay [4] (setting [5]) and in assay [4] (setting [6]) were 0.4 µM, 2.9 µM and 3 µM, respectively. Also, in assay [2], the “% Inhibition at 100 μM IGF1R-Y-P” value is 30.2%. The “% Inhibition at 100 μM p42” value in assay [3] is on record as 11.0%. Moreover, in assay [3], the “% Inhibition at 100 μM p44” value is on record as 39.4%.

Consider GDGY [GFB-134], for which the IC50 in assay [1] came to 1.9 µM; in assay [4] (setting [5]), 2.5 µM; in assay [4] (setting [6]), 2.6 µM. Moreover, in assay [2], the “% Inhibition at 100 μM IGF1R-Y-P” value is listed as 16.8%. The “% Inhibition at 100 μM p42” value in assay [3] worked out at 4.9%. Moreover, the “% Inhibition at 100 μM p44” value in assay [3] is 53.5%.

Take GDGY [GFB-135]: the figures for the IC50 in assay [1], in assay [4] (setting [5]) and in assay [4] (setting [6]) were 1.9 µM, 3.2 µM and 24 µM, respectively. Besides, in assay [2], the “% Inhibition at 100 μM IGF1R-Y-P” value is recorded as 16.2%. Also, in assay [3], the “% Inhibition at 100 μM p42” value was determined as 0.8%. Further, in assay [3], the “% Inhibition at 100 μM p44” value turned out to be 46.1%.

As to GDGY [GFB-137], the IC50 in assay [1] was 0.4 µM; in assay [4] (setting [5]), 2.9 µM; in assay [4] (setting [6]), 47 µM. Besides, the “% Inhibition at 100 μM IGF1R-Y-P” value in assay [2] worked out at 36.0%. Also, the “% Inhibition at 100 μM p42” value in assay [3] was found to be 5.9%. In addition, the “% Inhibition at 100 μM p44” value in assay [3] was 38.2%.

GDLD [GFB-109]: the IC50 is 7.5 µM in assay [1] and 15 µM in assay [4] (setting [5]). In addition, the “% Inhibition at 100 μM p42” value in assay [3] is 68.3%. In addition, in assay [3], the “% Inhibition at 100 μM p44” value came out at 79.7%.

In the case of GDND [GFB-117], the IC50 in assay [1] was determined as 5.8 µM. In assay [2], the “% Inhibition at 100 μM IGF1R-Y-P” value is listed as 4.9%. In addition, in assay [3], the “% Inhibition at 100 μM p42” value turned out to be 17.1% and the “% Inhibition at 100 μM p44” value came to 61.5%. For the same substance, in assay [4] (setting [5]), the IC50 amounted to 36 µM.
